Test results: patent publication US10681909B2, “Herbicidal triazoles” (FMC Corporation, priority 2014, dated 2020)

Experiments:
[1] = system: kochia; assay: Test A postemergence; format: in vivo, Kochia scoparia; settings: 0 to 100 scale (0 no effect, 100 complete control), approx. 10 d
Method in brief: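 Weed and crop species in loam–sand blend sprayed preemergence on soil or postemergence at 2–10 cm, one- to two-leaf stage, with chemicals in surfactant-containing solvent. Injury rated visually after ~10 d in greenhouse versus untreated controls on a 0–100 scale (100 = complete control).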

[2] = system: ryegrass, Italian; assay: Test C preemergence; format: in vivo, Lolium multiflorum; settings: for Ryegrass, Italian plant response rating (0 to 100): Preemergence, visual rating after 13 to 15 d; for Plant response rating (scale of 0 to 100 where 0 is no effect and 100 is complete control): Ryegrass, Italian, preemergence
Description: Seeds of plant species selected from blackgrass (Alopecurus myosuroides), ryegrass, Italian (Italian ryegrass, Lolium multiflorum), wheat (winter wheat, Triticum aestivum), galium (catchweed bedstraw, Galium aparine), corn (Zea mays), crabgrass, large (large crabgrass, Digitaria sanguinalis), foxtail, giant, (giant foxtail, Setaria faberii), johnsongrass (Sorghum halepense), lambsquarters (Chenopodium album), morningglory (Ipomoea coccinea), nutsedge, yellow (yellow nutsedge, Cyperus esculentus), pigweed (Amaranthus retroflexus), ragweed (common ragweed, Ambrosia elatior), soybean (Glycine max), barnyardgrass (Echinochloa crus-galli), oilseed rape (Brassica napus), waterhemp (common waterhemp, Amaranthus rudis), and velvetleaf (Abutilon theophrasti) were planted into a blend of loam soil and sand and treated preemergence with test chemicals formulated in a non-phytotoxic solvent mixture which included a surfactant. At the same time, plants selected from these crop and weed species and also chickweed (common chickweed, Stellaria media), oat, wild (wild oat, Avena fatua), and kochia (Kochia scoparia), were planted in pots containing Sunshine Redi-Earth® planting medium comprising spaghnum peat moss, vermiculite, starter nutrients and dolomitic limestone and treated with postemergence applications of test chemicals formulated in the same manner. Plants ranged in height from 2 to 18 cm (1- to 4-leaf stage) for postemergence treatments. […] A dash (-) response means no test result.

[3] = system: Russian thistle; assay: Test D preemergence; format: in vivo, Salsola kali; settings: for Plant response rating (0 to 100), Russian Thistle: 16 g ai/ha, 0 is no effect, 100 is complete control; for Plant response rating: Russian Thistle: scale 0 to 100
Description: (§1) Seeds of plant species selected from bluegrass (annual bluegrass, Poa annua), blackgrass (Alopecurus myosuroides), canarygrass (Phalaris minor), chickweed (common chickweed, Stellaria media), galium (catchweed bedstraw, Galium aparine), bromegrass, down (downy bromegrass, Bromus tectorum), Russian thistle (Salsola kali), field poppy (Papaver rhoeas), field violet (Viola arvensis), foxtail, green (green foxtail, Setaria viridis), deadnettle (henbit deadnettle, Lamium amplexicaule), ryegrass, Ital. (Italian ryegrass, Lolium multiflorum), kochia (Kochia scoparia), lambsquarters (Chenopodium album), oilseed rape (Brassica napus), pigweed (Amaranthus retroflexus), chamomile (scentless chamomile, Matricaria inodora), speedwell (bird's-eye speedwell, Veronica persica), barley, spring (spring barley, Hordeum vulgare), wheat, spring (spring wheat, Triticum aestivum), buckwheat, wild (wild buckwheat, Polygonum convolvulus), wild mustard (Sinapis arvensis), oat, wild (wild oat, Avena fatua), radish, wild (wild radish, Raphanus raphanistrum), […]), barley, winter (winter barley, Hordeum vulgare), and wheat, winter (winter wheat, Triticum aestivum) were planted into a silt loam soil and treated preemergence with test chemicals formulated in a non-phytotoxic solvent mixture which included a surfactant. At the same time, these species were planted in pots containing Sunshine Redi-Earth® planting medium comprising spaghnum peat moss, vermiculite, starter nutrients and dolomitic limestone and treated with postemergence applications of the test chemicals formulated in the same manner. Plants ranged in height from 2 to 18 cm (1- to 4-leaf stage). Treated plants and controls were maintained in a controlled growth environment for 14 to 21 d after which time all species were compared to controls and visually evaluated. […] A dash (-) response means no test result.

[4] = system: pigweed; assay: Test D preemergence; format: in vivo, Amaranthus retroflexus; settings: for Plant response rating (0 to 100), Pigweed: 16 g ai/ha, 0 is no effect, 100 is complete control; for Plant response rating: Pigweed: scale 0 to 100
Description: as §1

[5] = system: chickweed; assay: Test D postemergence; format: in vivo, Stellaria media; settings: scale 0 to 100
Description: as §1

[6] = system: pigweed; assay: Test D postemergence; format: in vivo, Amaranthus retroflexus; settings: scale 0 to 100
Description: as §1

[7] = system: chamomile; assay: Test D postemergence; format: in vivo, Matricaria inodora; settings: scale 0 to 100
Description: as §1

[8] = system: crabgrass, large; assay: Test A postemergence; format: in vivo, Digitaria sanguinalis; settings: Digitaria sanguinalis, post-emergence, 240 h, 0 to 100 scale (0 no effect, 100 complete control), approx. 10 d, read-out: Plant response rating, Crabgrass, Large
Method in brief: (§2)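 Test chemicals, formulated in a surfactant-containing non-phytotoxic solvent mixture, are applied either as a directed soil spray to newly planted seeds or as a postemergence application to plants at the one- to two-leaf stage (2–10 cm). All plants grow in a loam soil and sand blend.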

[9] = system: morningglory; assay: Test A postemergence; format: in vivo, Ipomoea spp.; settings: Ipomoea, post-emergence, 240 h, 0 to 100 scale (0 no effect, 100 complete control), approx. 10 d, read-out: Plant response rating, Morningglory
Method in brief: as §2

Structure (SMILES) | Plant response rating, Kochia ([1]; 125 g ai/ha) | Plant response rating, Kochia ([1]; 500 g ai/ha) | Ryegrass, Italian plant response rating (0 to 100) ([2]; 31 g ai/ha) | Ryegrass, Italian plant response rating (0 to 100) ([2]; 62 g ai/ha) | Plant response rating (scale of 0 to 100 where 0 is no effect and 100 is complete control) ([2]; 125 g ai/ha) | Plant response rating (scale of 0 to 100 where 0 is no effect and 100 is complete control) ([2]; 250 g ai/ha) | Plant response rating (0 to 100), Russian Thistle [3] | Plant response rating: Russian Thistle ([3]; 62 g ai/ha) | Plant response rating: Russian Thistle ([3]; 125 g ai/ha) | Plant response rating: Pigweed ([4]; 62 g ai/ha) | Plant response rating: Pigweed ([4]; 125 g ai/ha) | Plant response rating: Chickweed ([5]; 31 g ai/ha) | Plant response rating: Chickweed ([5]; 62 g ai/ha) | Plant response rating: Chickweed ([5]; 125 g ai/ha) | Plant response rating: Pigweed ([6]; 31 g ai/ha) | Plant response rating: Pigweed ([6]; 62 g ai/ha) | Plant response rating: Pigweed ([6]; 125 g ai/ha) | Plant response rating: Chamomile ([7]; 31 g ai/ha) | Plant response rating: Chamomile ([7]; 62 g ai/ha) | Plant response rating: Chamomile ([7]; 125 g ai/ha) | other results
CCOc1nc(-c2ccccc2)nn1Cc1ccnc(C(F)(F)F)c1 [Compound 27] | 90 | 90 | 25 | 30 | 90 | 95 | 75 | 85 | 85 | 100 | 100 | 95 | 100 | 100 | 100 | 100 | 100 | 15 | 20 | 35 | Plant response rating (0 to 100), Pigweed [4]: 100; Plant response rating: Chickweed ([5]; 16 g ai/ha): 85; Plant response rating: Pigweed ([6]; 16 g ai/ha): 100; Plant response rating: Chamomile ([7]; 16 g ai/ha): 15
FC(F)(F)COc1nc(-c2ccccc2)nn1Cc1ccnc(C(F)(F)F)c1 [Compound 24] | 90 | 90 | 5 | 15 | 85 | 90 | 65 | 85 | 85 | 100 | 100 | 60 | 70 | 90 | 100 | 100 | 100 | 20 | 20 | 30 | Plant response rating (0 to 100), Pigweed [4]: 95; Plant response rating: Chickweed ([5]; 16 g ai/ha): 55; Plant response rating: Pigweed ([6]; 16 g ai/ha): 95; Plant response rating: Chamomile ([7]; 16 g ai/ha): 30
FC(F)(F)COc1nc(-c2ccc(Cl)cc2)nn1Cc1ccnc(C(F)(F)F)c1 [Compound 31] | 90 | 90 | 50 | 60 | 90 | 90 | 70 | 85 | 90 | 100 | 100 | 90 | 100 | 100 | 100 | 100 | 100 | 35 | 65 | 80 | Plant response rating (0 to 100), Pigweed [4]: 100; Plant response rating: Chickweed ([5]; 16 g ai/ha): 80; Plant response rating: Pigweed ([6]; 16 g ai/ha): 100; Plant response rating: Chamomile ([7]; 16 g ai/ha): 20
COc1nc(-c2ccc(Cl)cc2)nn1Cc1ccnc(C(F)(F)F)c1 [Compound 28] | 90 | 90 |  |  |  |  | 70 | 85 | 85 | 100 | 100 | 70 | 70 | 90 | 100 | 100 | 100 | 15 | 15 | 25 | Plant response rating (0 to 100), Pigweed [4]: 100; Plant response rating: Chickweed ([5]; 16 g ai/ha): 65; Plant response rating: Pigweed ([6]; 16 g ai/ha): 100; Plant response rating: Chamomile ([7]; 16 g ai/ha): 10
CCOc1nc(-c2ccc(F)cc2)nn1Cc1ccnc(C(F)(F)F)c1 [Compound 8, 4-[[5-ethoxy-3-(4-fluorophenyl)-1H-1,2,4-triazol-1-yl]methyl]-2-(trifluoromethyl)pyridine] |  |  | 50 | 80 | 90 | 90 |  |  |  | 100 | 100 | 80 | 85 | 85 | 95 | 95 | 100 | 50 | 50 | 60 | pest or weed control at 125 g/ha ([8]; 125 g ai/ha): 100%; pest or weed control at 500 g/ha ([8]; 500 g ai/ha): 100%; pest or weed control at 125 g/ha ([9]; 125 g ai/ha): 90%; pest or weed control at 500 g/ha ([9]; 500 g ai/ha): 100%; Plant response rating: Pigweed ([4]; 250 g ai/ha): 100; Plant response rating: Chickweed ([5]; 250 g ai/ha): 90; Plant response rating: Pigweed ([6]; 250 g ai/ha): 95; Plant response rating: Chamomile ([7]; 250 g ai/ha): 65
